Assay results from patent US20210115040A1, “OGA INHIBITOR COMPOUNDS” (Janssen Pharmaceutica NV, priority 2018, published 2021).

Target: T1, recombinant human Meningioma Expressed Antigen 5 (MGEA5), also referred to as O-GlcNAcase (OGA) (Homo sapiens, UniProt O60502)
T1 construct: Full length OGA enzyme was purchased at OriGene (cat #TP322411); purchased OriGene TP322411
T1 sequence (O60502 1-916): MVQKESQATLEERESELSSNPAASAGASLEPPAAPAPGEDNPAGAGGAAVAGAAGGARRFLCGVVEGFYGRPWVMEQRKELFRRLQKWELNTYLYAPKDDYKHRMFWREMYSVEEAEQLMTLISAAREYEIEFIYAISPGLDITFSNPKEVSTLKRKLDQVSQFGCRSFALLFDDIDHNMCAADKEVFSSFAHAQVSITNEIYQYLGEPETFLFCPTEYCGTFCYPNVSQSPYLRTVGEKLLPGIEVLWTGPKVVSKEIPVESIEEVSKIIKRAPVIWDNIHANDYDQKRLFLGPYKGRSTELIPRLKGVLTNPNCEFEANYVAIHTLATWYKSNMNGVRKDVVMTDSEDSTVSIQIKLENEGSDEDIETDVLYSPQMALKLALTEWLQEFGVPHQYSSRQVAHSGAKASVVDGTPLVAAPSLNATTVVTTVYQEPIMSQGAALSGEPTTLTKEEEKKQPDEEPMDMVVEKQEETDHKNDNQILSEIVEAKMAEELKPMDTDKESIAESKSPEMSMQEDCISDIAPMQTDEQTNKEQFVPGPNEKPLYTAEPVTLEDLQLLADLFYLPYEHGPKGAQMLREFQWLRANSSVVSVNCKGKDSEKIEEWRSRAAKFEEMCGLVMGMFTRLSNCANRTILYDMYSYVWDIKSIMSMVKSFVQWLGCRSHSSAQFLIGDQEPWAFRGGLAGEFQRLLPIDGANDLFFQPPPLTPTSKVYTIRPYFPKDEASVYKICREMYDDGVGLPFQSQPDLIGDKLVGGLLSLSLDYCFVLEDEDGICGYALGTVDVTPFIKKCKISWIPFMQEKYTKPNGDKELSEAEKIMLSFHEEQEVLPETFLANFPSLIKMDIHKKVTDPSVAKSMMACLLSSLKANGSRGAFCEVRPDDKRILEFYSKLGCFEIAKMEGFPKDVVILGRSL
Test: OGA biochemical assay (inhibition of FM-GlcNAc hydrolysis, fluorescence)
Settings: FM-GlcNAc substrate; for IC50: 6 h at room temperature, read-out: Enzymatic hOGA, pIC50 (converted); for Emax: read-out: Enzymatic Emax (%)
Description: The assay is based on the inhibition of the hydrolysis of fluorescein mono-β-D-N-Acetyl-Glucosamine (FM-GlcNAc) (Mariappa et al. 2015, Biochem J 470:255) by the recombinant human Meningioma Expressed Antigen 5 (MGEA5), also referred to as O-GlcNAcase (OGA). The hydrolysis FM-GlcNAc (Marker Gene technologies, cat #M1485) results in the formation of β-D-N-glucosamineacetate and fluorescein. The fluorescence of the latter can be measured at excitation wavelength 485 nm and emission wavelength 538 nm. An increase in enzyme activity results in an increase in fluorescence signal. Full length OGA enzyme was purchased at OriGene (cat #TP322411). The enzyme was stored in 25 mM Tris.HCl, pH 7.3, 100 mM glycine, 10% glycerol at −20° C. Thiamet G and GlcNAcStatin were tested as reference compounds (Yuzwa et al. 2008 Nature Chemical Biology 4:483; Yuzwa et al. 2012 Nature Chemical Biology 8:393). The assay was performed in 200 mM Citrate/phosphate buffer supplemented with 0.005% Tween-20. 35.6 g Na2HPO4 2H2O (Sigma, #C0759) were dissolved in 1 L water to obtain a 200 mM solution. 19.2 g citric acid (Merck, #1.06580) was dissolved in 1 L water to obtain a 100 mM solution. pH of the sodiumphosphate solution was adjusted with the citric acid solution to 7.2. The buffer to stop the reaction consists of a 500 mM Carbonate buffer, pH 11.0. 734 mg FM-GlcNAc were dissolved in 5.48 mL DMSO to obtain a 250 mM solution and was stored at −20° C. OGA was used at a 2 nM concentration and FM-GlcNAc at a 100 uM final concentration. Dilutions were prepared in assay buffer.
50 nl of a compound dissolved in DMSO was dispensed on Black Proxiplate™ 384 Plus Assay plates (Perkin Elmer, #6008269) and 3 μl fl-OGA enzyme mix added subsequently. Plates were pre-incubated for 60 min at room temperature and then 2 μl FM-GlcNAc substrate mix added. […] Plates were briefly centrifuged for 1 min at 1000 rpm and incubate at room temperature for 6 h. To stop the reaction 5 μl STOP buffer were added and plates centrifuge again 1 min at 1000 rpm. Fluorescence was quantified in the Thermo Scientific Fluoroskan Ascent or the PerkinElmer EnVision with excitation wavelength 485 nm and emission wavelength 538 nm.
For analysis a best-fit curve is fitted by a minimum sum of squares method. From this an IC50 value and Hill coefficient was obtained. High control (no inhibitor) and low control (saturating concentrations of standard inhibitor) were used to define the minimum and maximum values.

| Structure (SMILES) | IC50 [nM] | Emax (maximal effect) [%] | Enzymatic Emax (%) (maximal effect) |
| --- | --- | --- | --- |
| COc1cc(O[C@@H]2CCN(C(C)c3ccc4oc(C)nc4n3)C2)cc(C)n1 (mixture of isomers) [Compound 21ab] | 251 | 97 |  |
| Cc1cc(C[C@H]2CCCN(C(C)c3ccc4occc4n3)C2)cc(C)n1 (mixture of isomers) [Compound 38] | 126 | 100 |  |
| Cc1cc(OC[C@@H]2CCCN(C(C)c3ccc4sc(C)nc4n3)C2)cc(C)n1 (mixture of isomers) [Compound 45ab] | 316 | 98 |  |
| Cc1cc(C[C@@H]2CCN(C(C)c3cnc4[nH]c(C)nc4c3)C2)cc(C)n1 (mixture of isomers) [Compound 7] | 50.1 | 100 |  |
| Cc1cc(C[C@@H]2CCN(C(C)c3ccc4oc(C)nc4n3)C2)cc(C)n1 (mixture of isomers) [Compound 26] | 39.8 | 101 |  |
| COc1cc(C[C@@H]2CCN(C(C)c3ccc4oc(C)nc4n3)C2)cc(C)n1 (mixture of isomers) [Compound 28] | 100 | 99 |  |
| Cc1cc(C[C@H]2CCN(C(C)c3ccc4oc(C)nc4n3)C2)cc(C(F)(F)F)n1 (mixture of isomers) [Compound 29] | 126 | 103 |  |
| Cc1cc(C2CCCN(C(C)c3cc4nc(C)oc4cc3F)C2)cc(C)n1 (racemic) [Compound 32] | 7.94 | 99 |  |
| Cc1cc(C[C@@H]2CCN(C(C)c3cc4nc(C)oc4cc3F)C2)cc(C)n1 (mixture of isomers) [Compound 33ab] | 20 | 99 |  |
| Cc1cc(OC[C@H]2CCCN(C(C)c3cc4nc(C)oc4cc3F)C2)cc(C)n1 (mixture of isomers) [Compound 34] | 10 | 101 |  |
| Cc1cc(OC[C@@H]2CCCN(C(C)c3cc4nc(C)oc4cc3F)C2)cc(C)n1 (mixture of isomers) [Compound 35] | 100 | 101 |  |
| COc1cc(C[C@@H]2CCN(C(C)c3ccc4sc(C)nc4n3)C2)cc(C)n1 (mixture of isomers) [Compound 44] | 126 | 99 |  |
| Cc1cc(C[C@H]2CCCN([C@@H](C)c3ccc4cn(C)nc4n3)C2)cc(C)n1 (relative stereo) [Compound 12a] | 1580 | 88 |  |
| Cc1cc(C[C@H]2CCCN([C@H](C)c3ccc4cn(C)nc4n3)C2)cc(C)n1 (relative stereo) [Compound 12b] | 15.8 | 100 |  |
| COc1cc(C[C@H]2CCCN([C@@H](C)c3ccc4oc(C)nc4n3)C2)cc(C)n1 (relative stereo) [Compound 23b] | 200 | 101 |  |
| Cc1cc(C[C@@H]2CCN([C@H](C)c3cc4nc(C)oc4cc3F)C2)cc(C)n1 (relative stereo) [Compound 33a] | 2.51 | 100 |  |
| Cc1cc(C[C@@H]2CCN([C@@H](C)c3cc4nc(C)oc4cc3F)C2)cc(C)n1 (relative stereo) [Compound 33b] | 63.1 | 101 |  |
| Cc1cc(C[C@H]2CCCN(C(C)c3cnc4[nH]c(C)nc4c3)C2)cc(C)n1 (single isomer, unassigned) [Compound 6b] | 7.94 |  | 100 |
| Cc1cc(C[C@H]2CCCN(C(C)c3ccc4sc(C)nc4n3)C2)cc(C)n1 (single isomer, unassigned) [Compound 42a] | 501 | 98 |  |
| Cc1cc(C[C@H]2CCN(C(C)c3ccc4nc(C)sc4c3)C2)cc(C)n1 (single isomer, unassigned) [Compound 57] | > 10000 | 28 |  |
| Cc1cc(C2CCCN(C(C)c3cnc4[nH]c(C)nc4c3)C2)cc(C)n1 (centres unmarked) [Compound 1] | 316 | 98 |  |
| COc1cc(C2CCCN(C(C)c3cnc4[nH]c(C)nc4c3)C2)cc(C)n1 (centres unmarked) [Compound 2] | 200 | 97 |  |
| Cc1cc(C2CCCN(C(C)c3cnc4[nH]c(C)nc4c3)C2)cc(C(F)(F)F)n1 (centres unmarked) [Compound 3] | 316 | 96 |  |
| COc1cc([C@H]2CCCN([C@H](C)c3cnc4[nH]c(C)nc4c3)C2)cc(C(F)(F)F)n1 [Compound 4a] |  | 50 |  |
